Some results are limits rather than exact numbers.

For the compound `CC1CCC(=O)N1c1cc(-c2ccnc(Nc3cccc(Cl)c3)n2)ccn1` (configuration not stated), the melting point was 162 to 164 °C.

Compound `C#CC(C)(C)N=C(NC#N)SC` returned a melting point of 128 to 130 °C. Compound `CC12CC(=O)C3C(CCC4C(Br)C(O)CCC43C)C1CCC2C(=O)CBr` (configuration not stated) showed a melting point of 164 to 166 °C. `Cc1ccc(N2C(=O)C(O)=C(C(=O)c3ccc(C(C)C)cc3)C2c2ccc(OCCN3CCOCC3)cc2)nn1` (configuration not stated) registered a melting point of 256 °C. The result for `COC(=O)CC[C@@H](Cc1cn(Cc2ccccc2)c2ccccc12)NC(=O)CCCCCCc1ccccc1` reads 107 to 109 °C; that for `O=C1OCCC1C(=O)c1ccc(F)cc1[N+](=O)[O-]` (configuration not stated), 87 to 89 °C.

In the case of `CCNC(=O)c1c(Cl)cc(C=O)cc1[Si](C)(C)C`, the melting point lay within 95 to 97 °C. The figure for `CCOC(=O)C(C#N)=CNc1ccc(OC)c(OC)c1` is 150 to 155 °C.

Compound `CC1(C)Oc2ccc(CO)cc2[C@@H](N2CCCC2=O)[C@@H]1O` (relative stereo) gave a melting point of 175 to 178 °C. As to `Cc1cc(C)nc(NC(=NO)NS(=O)(=O)c2ccccc2Cl)n1`, the melting point lay within 165 to 167 °C. Take `Oc1ccccc1-c1nc(-c2ccc(-c3ccccc3)cc2)nc(-c2ccc3ccccc3c2)n1`: the melting point was 227 to 239 °C. The figure for `CN1C(=O)CC[C@]2(C)c3ccc(C=Cc4cnc5ccccc5c4)cc3CC[C@@H]12` is 181 to 183 °C; for `ClCc1cn2c(-c3ccccc3)cccc2n1` it is 126 to 127 °C; for `CCCC(=NOCC)C1=C(O)CC2(CSCCSC2)OC1=O` it is 108 to 110 °C.

In turn, `O=C1N[C@H](C(=O)NCCO)CS1` yielded a melting point of 116 to 118 °C.

The compound `Cn1nc(C(F)(F)F)c(C(=O)O)c1Sc1ccc(F)cc1` returned a melting point of 190 to 194 °C. The result for `CCCc1nc(C(=O)CC)c(C#N)n1C(c1ccccc1)(c1ccccc1)c1ccccc1` reads 96 °C. The result for `O=C(Nc1ccc(Cl)cc1Cl)c1ccccc1SSc1ccccc1C(=O)Nc1ccc(Cl)cc1Cl` reads 227 to 228 °C; that for `CC(O)=C1C(=O)CC(c2cc(Cl)sc2Cl)CC1=O` (configuration not stated), 107 to 108 °C; that for `CCOc1cc(C=C2SC(=S)N(N(C)C)C2=O)ccc1O`, 194 to 198 °C. Turning to `CC(O)c1cncc(C2(O)CCN(CC34CC(c5ccccc53)c3ccccc34)CC2)c1` (configuration not stated), the melting point is 177 to 183 °C. `Cc1cc(N2CCN(c3c(C)c(C)c4c(c3C)CC(C)(C)O4)CC2)n2nccc2n1` came in with a melting point of 180 to 182 °C.

`O=CNc1ccc(-c2ccc(C(=O)N3CCN4CCC3CC4)o2)cc1` returned a melting point of 236 °C. On to `O=C(CCCN1CCN(c2nc3nccc(-c4ccncc4)n3n2)CC1)c1ccc(F)cc1`, for which the melting point lay in the range of 133 to 135 °C. The result for `COc1ccc(/C=C\c2ccc(OC)c(OC)c2OC)cc1` reads 55 to 57 °C; that for `CS(=O)(=O)OC1CCc2c(sc(N)c2C(=O)c2ccc(Cl)cc2)C1` (configuration not stated), 73 to 75 °C; that for `Cc1ccccc1NC1=CCC(C)n2c1ncc(C(=O)O)c2=O` (configuration not stated), 157 to 159 °C. Compound `C#CCN1C(=O)N(c2ccc(C#N)c(C(F)(F)F)c2)C(=O)C1(CO)CO` displayed a melting point of 125 to 126 °C.

Regarding `CC(C)(C)c1cc(C(=O)OCc2ccccc2)cc(C(C)(C)C)c1O`, the melting point fell in the range of 80 to 83 °C.

On to `Cc1cccc2c1NC(=O)C(CCCN1CCN(c3ccccc3F)CC1)S2` (configuration not stated), for which the melting point is 121 to 123 °C.

With `CN(CCCNC1=CC(=O)c2scnc2C1=O)CCCNC1=CC(=O)c2scnc2C1=O`, the melting point lay within 223 to 224 °C. The compound `COc1ccc(C(=O)c2sccc2OC)cc1` displayed a melting point of 98 to 99 °C. For the compound `CCN1C(=O)N(c2ccc(C#N)c(C(F)(F)F)c2)C(=O)C1(CO)CO`, the melting point fell in the range of 155 to 156 °C. For `O=C1CCN(c2ccc(CC3SC(=O)NC3=O)cc2F)CC1` (configuration not stated), the melting point was 129 to 130 °C. `O=C(O)C=Cc1cc(=O)c(OCc2ccccc2)c[nH]1` showed a melting point of 236 °C. `CCOC(=O)CNC(=O)C(=O)NCC(OC)OC` had a melting point of 63 to 65 °C. The figure for `COc1ccccc1C=Cc1ccccc1` is 69 to 70 °C; for `O=C(Cl)c1sc2cc(OCc3ccccc3)ccc2c1Cl` it is 132 to 134 °C.

As for `Cn1c(=O)c2c(Oc3cccc(Cl)c3)cccc2n2cnc(-c3noc(C4CC4)n3)c12`, the melting point lay within 201 to 203 °C. Turning to `CCOc1ccc2ccc(NC(=O)c3ccc(OC)cc3)nc2n1`, the melting point is 152 °C. As for `C=C=CS(=O)(=O)c1ncc(Cl)cn1`, the melting point is 130 °C.

The compound `CNC(=O)c1cccc(Cl)c1Nc1nc(Nc2ccc3c(c2)CCCC(=O)N3C)ncc1Cl` returned a melting point of 145 to 160 °C.

Compound `O=S(=O)(c1ccc(O)cc1)c1ccc(Cl)cc1` registered a melting point of 143 to 145 °C. The figure for `O=c1c([N+](=O)[O-])c(O)c2cccnc2n1Cc1ccccc1` is 182 °C; for `CCCOc1cccc(-c2nn(C(C)c3oc4ccccc4c(=O)c3-c3cccc(F)c3)c3ncnc(N)c23)c1` (configuration not stated) it is 178 to 182 °C. The result for `COc1ccc(C(=O)c2sc(Nc3ccc(OCc4ccccc4)cc3)nc2N)cc1` reads 222 to 224 °C. The figure for `Cc1ccccc1OCC(O)COc1cccc2oc(C(=O)O)cc(=O)c12` (configuration not stated) is 95 to 97 °C; for `CCCC(CCNC(=O)C(C#N)=Cc1ccc(O)c(O)c1)NC(=O)C(C#N)=Cc1ccc(O)c(O)c1` (configuration not stated) it is 263 °C; for `O=C(O)CCc1cnc2ccccc2c1` it is 180 to 181 °C. In the case of `COC(=O)C(C)c1ccc2cc(OC(=O)COCc3ccccc3)ccc2c1` (configuration not stated), the melting point is 58 to 60 °C. The result for `CCN(CC)C(=O)c1cccc2c(=O)c(C)c(-c3ccc(OC)cc3)oc12` reads 143 to 147 °C. The figure for `O=[N+]([O-])c1cc(NCc2c(F)c(F)c(C(F)(F)F)c(F)c2F)ccc1O` is 126 to 128 °C. The result for `O=C(NCc1ccccc1)c1ccc(OC2CCCC2)c2oc3ccccc3c12` reads 172 to 175 °C; that for `NS(=O)(=O)c1cc(CO)cc(N2CCCC2)c1Oc1ccccc1`, 155 °C; that for `Cc1ccc(-c2c(C(=O)NCc3cc(C(F)(F)F)cc(C(F)(F)F)c3)n(C[C@H](C)CO)c(=O)c3ncccc23)cc1`, 123 to 125 °C.

Take `Nc1ccc(CN2CCN(Cc3ccc(N)cc3)C(=O)C2=O)cc1`: the melting point fell in the range of 193 to 194 °C.

As for `[N-]=[N+]=Nc1cnn(-c2cc(-c3ccnc(Nc4cccc(Cl)c4)n3)ccn2)c(=O)c1Cl`, the melting point was in the range of 184 to 186 °C. Compound `CN(C)Nc1c([N+](=O)[O-])cc(C(F)(F)F)c(Cl)c1[N+](=O)[O-]` had a melting point of 130 to 131 °C. The figure for `CC(=O)Nc1c(C)ccc([N+](=O)[O-])c1C` is 171 to 173 °C; for `CCN(CC)c1ccc(S(=O)(=O)N2CC(O)CC2=O)cc1` (configuration not stated) it is 165 °C; for `Brc1ccc(-c2cc(-c3ccc(Br)cc3)cc(-c3ccc(Br)cc3)c2)cc1` it is 254 to 255 °C. The figure for `CCc1c(-c2ccc(CO)cc2)c2cc(C(C)=O)c3cccc1n32` is 73 to 77 °C; for `CCOc1ccc(C=CC(=O)c2c(OCC)cc(OCC)cc2OC(=O)CC)cc1` it is 84.5 °C. The figure for `COc1cc(-c2ccc(C(C)C)cc2)cc2oc(=O)c(Cl)c(C)c12` is 124 °C; for `Nc1nc(SCc2nc(C3CC3)no2)ncc1Cc1ccccc1` it is 94 °C; for `CCCCCS(=O)(=O)NC(=O)/C=C/c1ccc(OCCOC)cc1Oc1ncc(-c2ccccc2)cc1C` it is 133 to 134 °C. `COc1ccc(CN2CCN(CCCOc3ccc4c(C)cc(=O)[nH]c4c3)CC2)cc1` yielded a melting point of 167 to 168 °C.

`CNC(=O)c1cc(F)ccc1CNC(=O)c1nc2n(c(=O)c1OCc1ccccc1)CCN2c1ccccc1` showed a melting point of 194 to 195 °C. The result for `CC(=O)SC(C)CNC(=O)c1cc(Cl)cc(C)c1NC(=O)c1cc(C(F)(F)F)nn1-c1ncccc1Cl` (configuration not stated) reads 137 to 139 °C; that for `CCCC(NS(=O)(=O)NC(=O)OCc1ccccc1)C(=O)OC` (configuration not stated), 76 to 78 °C; that for `CC(=O)C(=NNc1ccccc1)C(=O)OCC(C)C`, 45 to 50 °C. The result for `CCOC(=O)c1nc2cc(I)c(I)cc2[nH]c1=O` reads 275 to 276 °C; that for `CCOc1ccc(C(=O)Nc2ccccc2)cc1N(c1ccccc1)C(F)(F)F`, 184 to 185 °C. The result for `O=S(=O)(CCN1CCC2(CC1)OCc1ccccc12)CCN1CCC2(CC1)OCc1ccccc12` reads 170 to 172 °C; that for `COc1ccc(-c2nc3c(C(=O)NC4CN5CCC4CC5)cccc3o2)cc1` (configuration not stated), 108 to 109 °C; that for `O=C(OC1CCCCC1)C1Oc2ccccc2Cc2ccccc2O1`, 120 to 125 °C. Take `CC(C)(C(=O)Nc1cc(F)ccc1F)N1COC(C=O)=C(c2ccccc2)C1=O`: the melting point was in the range of 76 to 77.5 °C. The result for `Cc1ccc(C2=NC(O)(C(F)(F)F)CN2c2ccc(S(C)(=O)=O)cc2)cc1` (configuration not stated) reads 198 to 199 °C; that for `CCC(=O)OCc1c(C)cc([N+](=O)[O-])c(NC(CC)CC)c1[N+](=O)[O-]`, 27 to 29 °C. The figure for `Cc1oc(-c2ccccc2)nc1COc1ccc2cc(CCCc3nnn[nH]3)oc2c1` is 139 to 140 °C; for `Cn1c(-c2ccccc2)c(CCCl)sc1=S` it is 116 °C; for `COc1ccc(Cn2c(C)nc3c(Cl)ncnc32)cc1` it is 121 to 123 °C. The figure for `COC(=O)CCCCCCCCC=CCCCCCCCCC(=O)OC` is 44 °C; for `COc1cc(Br)nc2[nH]cc(C(C)=O)c12` it is > 210 °C; for `Cc1cc(-c2ccc(NC(=O)CCN3CCC(c4ccccc4)CC3)cc2)n[nH]c1=O` it is 239 to 240 °C. As for `CCOC(=O)C(CCCCCCN1C(=O)c2ccccc2C1=O)(NC(C)=O)C(=O)OCC`, the melting point fell in the range of 68.5 to 70 °C. As to `O=P1(c2ccc(F)cc2)c2ccccc2CN1c1ccccc1` (configuration not stated), the melting point lay in the range of 119 to 120 °C.
